Reference: patent publication US9884842B2, “Combretastatin analogs” (The Board of Trustees of the University of Arkansas, priority 2013, dated 2018)

What was measured:
SK-OV-3 = test: NCI growth inhibition and cytotoxicity screen, Ovarian Cancer panel; conditions: Homo sapiens
MDA-MB-468 = test: cells; conditions: Homo sapiens
SK-MEL-5 = test: NCI growth inhibition and cytotoxicity screen, Melanoma panel; conditions: Homo sapiens
SF-295 = test: NCI growth inhibition and cytotoxicity screen, CNS Cancer panel; format: cell-based; conditions: Homo sapiens, Table 2, cell line SF-295 (CNS Cancer)
HCC-2998 = test: NCI growth inhibition and cytotoxicity screen, Colon Cancer panel; conditions: Homo sapiens
U251 = test: NCI growth inhibition and cytotoxicity screen, CNS Cancer panel; conditions: Homo sapiens
KM12 = test: NCI growth inhibition and cytotoxicity screen, Colon Cancer panel; conditions: Homo sapiens
PC-3 = test: NCI growth inhibition and cytotoxicity screen, Prostate Cancer panel; conditions: Homo sapiens
ACHN = test: NCI growth inhibition and cytotoxicity screen, Renal Cancer panel; conditions: Homo sapiens
OVCAR-5 = test: NCI growth inhibition and cytotoxicity screen, Ovarian Cancer panel; conditions: Homo sapiens
SNB-19 = test: NCI growth inhibition and cytotoxicity screen, CNS Cancer panel; conditions: Homo sapiens
CAKI-1 = test: NCI growth inhibition and cytotoxicity screen, Renal Cancer panel; conditions: Homo sapiens
UACC-257 = test: NCI growth inhibition and cytotoxicity screen, Melanoma panel; conditions: Homo sapiens
OVCAR-4 = test: NCI growth inhibition and cytotoxicity screen, Ovarian Cancer panel; conditions: Homo sapiens
HS 578T = test: NCI growth inhibition and cytotoxicity screen, Breast Cancer panel; conditions: Homo sapiens
SF-539 = test: NCI growth inhibition and cytotoxicity screen, CNS Cancer panel; conditions: Homo sapiens
HCT-15 = test: NCI growth inhibition and cytotoxicity screen, Colon Cancer panel; conditions: Homo sapiens
NCI-H522 = test: NCI growth inhibition and cytotoxicity screen, Lung Cancer panel; format: cell-based; conditions: Homo sapiens, Table 2, cell line NCI-H522 (Lung Cancer)
SW-620 = test: NCI growth inhibition and cytotoxicity screen, Colon Cancer panel; conditions: Homo sapiens
MCF7 = test: NCI growth inhibition and cytotoxicity screen, Breast Cancer panel; conditions: Homo sapiens
SNB-75 = test: NCI growth inhibition and cytotoxicity screen, CNS Cancer panel; conditions: Homo sapiens
LOX-IMVI = test: NCI growth inhibition and cytotoxicity screen, Melanoma panel; conditions: Homo sapiens
K-562 = test: NCI growth inhibition and cytotoxicity screen, Leukemia panel; conditions: Homo sapiens
CCRF-CEM = test: as above; conditions: Homo sapiens
SN12C = test: NCI growth inhibition and cytotoxicity screen, Renal Cancer panel; conditions: Homo sapiens
NCI-H23 = test: NCI growth inhibition and cytotoxicity screen, Lung Cancer panel; conditions: Homo sapiens
SK-MEL-2 = test: NCI growth inhibition and cytotoxicity screen, Melanoma panel; conditions: Homo sapiens
NCI-H322M = test: NCI growth inhibition and cytotoxicity screen, Lung Cancer panel; conditions: Homo sapiens
NCI-H226 = test: as above; conditions: Homo sapiens
MOLT-4 = test: NCI growth inhibition and cytotoxicity screen, Leukemia panel; conditions: Homo sapiens
MDA-MB-231/ATCC = test: NCI growth inhibition and cytotoxicity screen, Breast Cancer panel; conditions: Homo sapiens
[1] = read-out: LC50 (the source's name)

Question: For `COc1cc(/C(C#N)=C/c2ccc3ccccc3n2)cc(OC)c1OC` [PNR-4-90, (Z)-3-(quinolin-2-yl)-2-(3,4,5-trimethoxyphenyl)acrylonitrile], which GI50 (SK-OV-3; SK-OV-3) is on record?
Answer: Its GI50 is 524 nM.

Question: What about the CC50 (SK-OV-3; SK-OV-3, read-out: LC50) of the same compound?
Answer: Its CC50 is > 100000 nM.

Question: What about the GI50 (MDA-MB-468; MDA-MB-468) of the same compound?
Answer: The GI50 was 243 nM.

Question: And the CC50 (MDA-MB-468; MDA-MB-468, read-out: LC50)?
Answer: Its CC50 is > 100000 nM.

Question: And the GI50 (SK-MEL-5; SK-MEL-5)?
Answer: The GI50 was 243 nM.

Question: And the CC50 (SK-MEL-5; SK-MEL-5, read-out: LC50)?
Answer: The CC50 was > 100000 nM.

Question: And the GI50 (SF-295)?
Answer: Its GI50 is 277 nM.

Question: And the CC50 (SF-295; [1])?
Answer: The CC50 was > 100000 nM.

Question: What about the GI50 (HCC-2998; HCC 2998) of the same compound?
Answer: Its GI50 is 610 nM.

Question: And the CC50 (HCC-2998; HCC 2998, read-out: LC50)?
Answer: The CC50 was > 100000 nM.

Question: And the GI50 (U251; U-251)?
Answer: The GI50 was 355 nM.

Question: And the CC50 (U251; U-251, read-out: LC50)?
Answer: The CC50 was 90500 nM.

Question: What about the GI50 (KM12; KM12) of the same compound?
Answer: The GI50 was 350 nM.

Question: And the CC50 (KM12; KM12, read-out: LC50)?
Answer: Its CC50 is > 100000 nM.

Question: And the GI50 (PC-3; PC-3)?
Answer: Its GI50 is 348 nM.

Question: What about the CC50 (PC-3; PC-3, read-out: LC50) of the same compound?
Answer: The CC50 was > 100000 nM.

Question: What about the GI50 (ACHN) of the same compound?
Answer: The GI50 was 1040 nM.

Question: What about the CC50 (ACHN; read-out: LC50) of the same compound?
Answer: The CC50 was > 100000 nM.

Question: And the GI50 (OVCAR-5; OVCAR-5)?
Answer: Its GI50 is 580 nM.

Question: What about the CC50 (OVCAR-5; OVCAR-5, read-out: LC50) of the same compound?
Answer: The CC50 was > 100000 nM.

Question: And the GI50 (SNB-19; SNB-19)?
Answer: The GI50 was 578 nM.

Question: What about the CC50 (SNB-19; SNB-19, read-out: LC50) of the same compound?
Answer: Its CC50 is > 100000 nM.

Question: What about the GI50 (CAKI-1; CAKI-1) of the same compound?
Answer: The GI50 was 68 nM.

Question: And the CC50 (CAKI-1; CAKI-1, read-out: LC50)?
Answer: Its CC50 is > 100000 nM.

Question: And the GI50 (UACC-257; UACC-257)?
Answer: Its GI50 is 761 nM.

Question: What about the CC50 (UACC-257; UACC-257, read-out: LC50) of the same compound?
Answer: Its CC50 is > 100000 nM.

Question: And the GI50 (OVCAR-4; OVCAR-4)?
Answer: The GI50 was 1430 nM.

Question: And the CC50 (OVCAR-4; OVCAR-4, read-out: LC50)?
Answer: The CC50 was > 100000 nM.

Question: What about the GI50 (HS 578T) of the same compound?
Answer: Its GI50 is 689 nM.

Question: And the CC50 (HS 578T; read-out: LC50)?
Answer: Its CC50 is > 100000 nM.

Question: And the GI50 (SF-539; SF-539)?
Answer: The GI50 was 197 nM.

Question: And the CC50 (SF-539; SF-539, read-out: LC50)?
Answer: Its CC50 is 14900 nM.

Question: And the GI50 (HCT-15; HCT-15)?
Answer: Its GI50 is 319 nM.

Question: What about the CC50 (HCT-15; HCT-15, read-out: LC50) of the same compound?
Answer: Its CC50 is > 100000 nM.

Question: And the GI50 (NCI-H522)?
Answer: Its GI50 is 37.2 nM.

Question: What about the CC50 (NCI-H522; [1]) of the same compound?
Answer: The CC50 was > 100000 nM.

Question: What about the GI50 (SW-620; SW-620) of the same compound?
Answer: The GI50 was 164 nM.

Question: What about the CC50 (SW-620; SW-620, read-out: LC50) of the same compound?
Answer: Its CC50 is > 100000 nM.

Question: And the GI50 (MCF7; MCF7)?
Answer: Its GI50 is 275 nM.

Question: And the CC50 (MCF7; MCF7, read-out: LC50)?
Answer: Its CC50 is > 100000 nM.

Question: What about the GI50 (SNB-75; SNB-75) of the same compound?
Answer: The GI50 was 182 nM.

Question: What about the CC50 (SNB-75; SNB-75, read-out: LC50) of the same compound?
Answer: Its CC50 is 98800 nM.

Question: And the GI50 (LOX-IMVI)?
Answer: Its GI50 is 766 nM.

Question: What about the CC50 (LOX-IMVI; read-out: LC50) of the same compound?
Answer: The CC50 was > 100000 nM.

Question: And the GI50 (K-562; K562)?
Answer: The GI50 was 80 nM.

Question: What about the CC50 (K-562; K562, read-out: LC50) of the same compound?
Answer: The CC50 was > 100000 nM.

Question: And the GI50 (CCRF-CEM)?
Answer: The GI50 was 248 nM.

Question: What about the CC50 (CCRF-CEM; read-out: LC50) of the same compound?
Answer: The CC50 was > 100000 nM.

Question: And the GI50 (SN12C)?
Answer: The GI50 was 627 nM.

Question: And the CC50 (SN12C; read-out: LC50)?
Answer: The CC50 was > 100000 nM.

Question: What about the GI50 (NCI-H23; NCI-H23) of the same compound?
Answer: Its GI50 is 751 nM.

Question: What about the CC50 (NCI-H23; NCI-H23, read-out: LC50) of the same compound?
Answer: The CC50 was > 100000 nM.

Question: And the GI50 (SK-MEL-2; SK-MEL-2)?
Answer: Its GI50 is 483 nM.

Question: And the CC50 (SK-MEL-2; SK-MEL-2, read-out: LC50)?
Answer: The CC50 was > 100000 nM.

Question: And the GI50 (NCI-H322M)?
Answer: The GI50 was 718 nM.

Question: And the CC50 (NCI-H322M; read-out: LC50)?
Answer: Its CC50 is > 100000 nM.

Question: What about the GI50 (NCI-H226; NCI-H226) of the same compound?
Answer: Its GI50 is 4780 nM.

Question: And the CC50 (NCI-H226; NCI-H226, read-out: LC50)?
Answer: The CC50 was > 100000 nM.

Question: And the GI50 (MOLT-4; MOLT-4)?
Answer: The GI50 was 488 nM.

Question: What about the CC50 (MOLT-4; MOLT-4, read-out: LC50) of the same compound?
Answer: The CC50 was > 100000 nM.

Question: What about the GI50 (MDA-MB-231/ATCC; MDA-MB-231) of the same compound?
Answer: Its GI50 is 943 nM.

Question: What about the CC50 (MDA-MB-231/ATCC; MDA-MB-231, read-out: LC50) of the same compound?
Answer: The CC50 was > 100000 nM.
